Results taken from US20260027116A1, “Methods of Treating Chronic Graft-Versus-Host Disease Following Allogeneic Hematopoietic Stem Cell Transplantation” (Kadmon Corporation, LLC, priority 2022, published 2026).

Tested on: patients with cGVHD
Settings: Cohort 1 200 mg QD

**Q.** Which “Rash erythematous: # Events” value does the source give for CC(C)NC(=O)COc1cccc(-c2nc(Nc3ccc4[nH]ncc4c3)c3ccccc3n2)c1 [Belumosudil, 2-{3-[4-(1H-indazol-5-ylamino)-2-quinazolinyl]phenoxy}-N-(propan-2-yl) acetamide] here?
**A.** 0

**Q.** And the “Rash erythematous: Affected/At Risk (%)” value?
**A.** 0/17 (0%)

**Q.** And the “Rash maculo-papular: # Events” value?
**A.** 2

**Q.** And the “Rash maculo-papular: Affected/At Risk (%)” value?
**A.** 2/17 (11.76%)

**Q.** What about the “Rash pustular: # Events” value of the same compound?
**A.** 0

**Q.** And the “Rash pustular: Affected/At Risk (%)” value?
**A.** 0/17 (0%)

**Q.** And the “Rash: # Events” value?
**A.** 2

**Q.** And the “Rash: Affected/At Risk (%)” value?
**A.** 1/17 (5.88%)

**Q.** What about the “Red blood cells urine positive: # Events” value of the same compound?
**A.** 0

**Q.** What about the “Red blood cells urine positive: Affected/At Risk (%)” value of the same compound?
**A.** 0/17 (0%)

**Q.** And the “Renal failure: # Events” value?
**A.** 0

**Q.** And the “Renal failure: Affected/At Risk (%)” value?
**A.** 0/17 (0%)

**Q.** What about the “Respiratory syncytial virus infection: # Events” value of the same compound?
**A.** 0

**Q.** What about the “Respiratory syncytial virus infection: Affected/At Risk (%)” value of the same compound?
**A.** 0/17 (0%)

**Q.** And the “Respiratory tract infection fungal: # Events” value?
**A.** 1

**Q.** What about the “Respiratory tract infection fungal: Affected/At Risk (%)” value of the same compound?
**A.** 1/17 (5.88%)

**Q.** And the “Respiratory tract infection: # Events” value?
**A.** 1

**Q.** And the “Respiratory tract infection: Affected/At Risk (%)” value?
**A.** 1/17 (5.88%)

**Q.** And the “Restless legs syndrome: # Events” value?
**A.** 0

**Q.** What about the “Restless legs syndrome: Affected/At Risk (%)” value of the same compound?
**A.** 0/17 (0%)

**Q.** What about the “Rosacea: # Events” value of the same compound?
**A.** 0

**Q.** And the “Rosacea: Affected/At Risk (%)” value?
**A.** 0/17 (0%)

**Q.** And the “SAE, No. (%)” value?
**A.** 5 (29)

**Q.** And the “Sinus pain: # Events” value?
**A.** 2

**Q.** What about the “Sinus pain: Affected/At Risk (%)” value of the same compound?
**A.** 2/17 (11.76%)

**Q.** What about the “Sinusitis: # Events” value of the same compound?
**A.** 1

**Q.** What about the “Sinusitis: Affected/At Risk (%)” value of the same compound?
**A.** 1/17 (5.88%)

**Q.** What about the “Skin abrasion: # Events” value of the same compound?
**A.** 0

**Q.** What about the “Skin abrasion: Affected/At Risk (%)” value of the same compound?
**A.** 0/17 (0%)

**Q.** And the “Skin lesion: # Events” value?
**A.** 0

**Q.** What about the “Skin lesion: Affected/At Risk (%)” value of the same compound?
**A.** 0/17 (0%)

**Q.** What about the “Skin papilloma: # Events” value of the same compound?
**A.** 1

**Q.** What about the “Skin papilloma: Affected/At Risk (%)” value of the same compound?
**A.** 1/17 (5.88%)

**Q.** And the “Spinal compression fracture: # Events” value?
**A.** 1

**Q.** What about the “Spinal compression fracture: Affected/At Risk (%)” value of the same compound?
**A.** 1/17 (5.88%)

**Q.** What about the “Squamous cell carcinoma of skin: # Events” value of the same compound?
**A.** 0

**Q.** What about the “Squamous cell carcinoma of skin: Affected/At Risk (%)” value of the same compound?
**A.** 0/17 (0%)

**Q.** What about the “Stomatitis: # Events” value of the same compound?
**A.** 2

**Q.** What about the “Stomatitis: Affected/At Risk (%)” value of the same compound?
**A.** 1/17 (5.88%)

**Q.** And the “Superior vena cava syndrome: # Events” value?
**A.** 0

**Q.** And the “Superior vena cava syndrome: Affected/At Risk (%)” value?
**A.** 0/17 (0%)

**Q.** What about the “TEAE, participants (%)” value of the same compound?
**A.** 17 (100%) participants

**Q.** And the “TESAE, participants (%)” value?
**A.** 5 (29%) participants

**Q.** And the “Tachycardia: # Events” value?
**A.** 0

**Q.** What about the “Tachycardia: Affected/At Risk (%)” value of the same compound?
**A.** 0/17 (0%)

**Q.** What about the “Tendonitis: # Events” value of the same compound?
**A.** 0

**Q.** What about the “Tendonitis: Affected/At Risk (%)” value of the same compound?
**A.** 0/17 (0%)

**Q.** What about the “Testicular pain: # Events” value of the same compound?
**A.** 1

**Q.** What about the “Testicular pain: Affected/At Risk (%)” value of the same compound?
**A.** 1/17 (5.88%)

**Q.** What about the “Testicular swelling: # Events” value of the same compound?
**A.** 1

**Q.** What about the “Testicular swelling: Affected/At Risk (%)” value of the same compound?
**A.** 1/17 (5.88%)

**Q.** What about the “Thoracic spinal stenosis: # Events” value of the same compound?
**A.** 1

**Q.** And the “Thoracic spinal stenosis: Affected/At Risk (%)” value?
**A.** 1/17 (5.88%)

**Q.** What about the “Thrombocytopenia: # Events” value of the same compound?
**A.** 0

**Q.** And the “Thrombocytopenia: Affected/At Risk (%)” value?
**A.** 0/17 (0%)

**Q.** And the “Thrombocytosis: # Events” value?
**A.** 1

**Q.** And the “Thrombocytosis: Affected/At Risk (%)” value?
**A.** 1/17 (5.88%)

**Q.** What about the “Tinea pedis: # Events” value of the same compound?
**A.** 0

**Q.** And the “Tinea pedis: Affected/At Risk (%)” value?
**A.** 0/17 (0%)

**Q.** And the “Tooth fracture: # Events” value?
**A.** 0

**Q.** What about the “Tooth fracture: Affected/At Risk (%)” value of the same compound?
**A.** 0/17 (0%)

**Q.** And the “Total other adverse events: Affected/At Risk (%)” value?
**A.** 17/17 (100%)

**Q.** What about the “Transfusion reaction: # Events” value of the same compound?
**A.** 1

**Q.** What about the “Transfusion reaction: Affected/At Risk (%)” value of the same compound?
**A.** 1/17 (5.88%)

**Q.** And the “Tremor: # Events” value?
**A.** 3

**Q.** And the “Tremor: Affected/At Risk (%)” value?
**A.** 2/17 (11.76%)

**Q.** And the “Type 2 diabetes mellitus: # Events” value?
**A.** 1

**Q.** What about the “Type 2 diabetes mellitus: Affected/At Risk (%)” value of the same compound?
**A.** 1/17 (5.88%)

**Q.** What about the “Ulcerative keratitis: # Events” value of the same compound?
**A.** 0

**Q.** What about the “Ulcerative keratitis: Affected/At Risk (%)” value of the same compound?
**A.** 0/17 (0%)

**Q.** And the “Upper respiratory tract infection: # Events” value?
**A.** 16

**Q.** And the “Upper respiratory tract infection: Affected/At Risk (%)” value?
**A.** 9/17 (52.94%)

**Q.** What about the “Upper-airway cough syndrome: # Events” value of the same compound?
**A.** 0

**Q.** What about the “Upper-airway cough syndrome: Affected/At Risk (%)” value of the same compound?
**A.** 0/17 (0%)

**Q.** What about the “Urinary retention: # Events” value of the same compound?
**A.** 0

**Q.** And the “Urinary retention: Affected/At Risk (%)” value?
**A.** 0/17 (0%)

**Q.** And the “Urinary tract infection: # Events” value?
**A.** 0

**Q.** And the “Urinary tract infection: Affected/At Risk (%)” value?
**A.** 0/17 (0%)

**Q.** And the “Urinary tract pain: # Events” value?
**A.** 0

**Q.** And the “Urinary tract pain: Affected/At Risk (%)” value?
**A.** 0/17 (0%)

**Q.** And the “Urine output decreased: # Events” value?
**A.** 1

**Q.** What about the “Urine output decreased: Affected/At Risk (%)” value of the same compound?
**A.** 1/17 (5.88%)

**Q.** And the “Vascular access complication: # Events” value?
**A.** 0

**Q.** What about the “Vascular access complication: Affected/At Risk (%)” value of the same compound?
**A.** 0/17 (0%)
